Data reported in patent US8227205B2 (priority 2007, dated 2012).

Experiments:
Type in all cases: cell-based
[1] = tested on: Jurkat cells; assay: CytoTox-Glo live and dead cell luminescence assay; conditions: Jurkat cells, 10,000 cells/well, 6 hours, FIG. 5/FIG. 7
Protocol: Ionomycin (a calcium ionophore which affects calcium flux across cell membranes, and therefore a model necrosis inducing agent at high concentrations) was two fold serially diluted from 100 μM in RPMI 1640+10% FBS in 50 μL volumes. Jurkat cells were added to 10,000 cells/well in a 50 μL volume. The plate was shaken briefly using an orbital shaker and then incubated for 6 hours at 37° C. CytoTox-Glo Reagent was prepared as above and added to each well in a equal volume (100 μL) per well. The plate was incubated at room temperature for 15 minutes and the dead cell signal measured using a BMG PolarStar. Digitonin (20 mg/mL in DMSO) was diluted to 300 μg/mL in CytoTox-Glo buffer and added in 20 μL volumes per well to facilitate complete cellular lysis. Luminescence was measured after 15 minutes of incubation at room temperature.
The luminescent signal collected after lysis was adjusted to reflect the “live cell” contribution by subtracting the initial dead cell signal. […]
Staurosporine (multiple mechanism apoptosis inducer) was two fold serially diluted from 20 μM in RPMI 1640+10% FBS in a microwell plate in 50 μL, volumes. […] The plate was incubated at room temperature for 15 minutes and the dead cell signal measured using a BMG PolarStar. […] Luminescence was measured after 15 minutes of incubation at room temperature. […]

[2] = tested on: DU-145 cells; assay: CytoTox-Glo live and dead cell luminescence assay; conditions: DU-145 cells, 5,000 cells/well, 48 hours, FIG. 10A
Protocol: DU-145 cells were seeded at a density of 5,000 cells/well in 50 μL of MEM+10% FBS and allowed to attach overnight. Epoxomicin (a proteasome inhibitor) was serially diluted from 5 μM in MEM+10% FBS and added in 50 μL volumes. The cells were incubated with the compound for 48 hours. CytoTox-Glo reagent was prepared as described above and added to each well in an equal volume (100 μL). After 15 minutes of incubation, the dead cell signal was measured. Digitonin (20 mg/mL in DMSO) was diluted in CytoTox-Glo buffer and added in 20 μL volumes to each well to facilitate complete cell lysis. Luminescence was measured after 15 minutes of incubation at room temperature.
The luminescent signal collected after lysis was adjusted to reflect the “live cell” contribution by subtracting the initial dead cell signal. The data were plotted as the non-viable and viable signals versus the concentration of epoxomicin (FIG. 10A). […] The data also represents yet another toxin and mechanistic form of cell death.

[3] = tested on: HeLa cells; assay: CytoTox-Glo dual measurement of cell viability and cytotoxicity (dead cell luminescence, then digitonin lysis, subtractive live cell signal); conditions: HeLa cells, 10,000 cells/well, 24 hours, FIG. 11B/11C
Protocol: In FIG. 11B, HeLa cells were seeded at a 10,000 cells/well in DMEM+10% FBS in 50 μl volumes and incubated overnight at 37° C. in 5% CO2. Nocodazole was two-fold serially diluted in DMEM+10% FBS in a separate plate from 2 μM and added in 50 μL it volumes (highest final dosage is 1,000 nM). The cells were allowed to incubate with the compound for 24 hours. CytoTox-Glo Reagent was prepared as above and added to each well in an equal volume (100 μL). After 15 minutes of incubation, the dead cell signal was collected. Digitonin (20 mg/mL in DMSO) was diluted in CytoTox-Glo buffer and added in 20 μL volumes to each well to facilitate complete cell lysis. Luminescence was measured after 15 minutes of incubation at room temperature.
The luminescent signal collected after lysis was adjusted to reflect the “live cell” contribution by subtracting the initial dead cell signal. The data were plotted as the non-viable and viable signals versus the concentration of nocodazole.
In FIG. 11C, HeLa cells were seeded at a 10,000 cells/well in DMEM+10% FBS in 50 μL volumes and incubated overnight at 37° C. in 5% CO2. Colchicine was two-fold serially diluted in DMEM+10% FBS in a separate plate from 1,000 nM and added in 50 μL volumes (highest final dosage was 500 nM). The cells were allowed to incubate with the compound for 24 hours. […] Luminescence was measured after 15 minutes of incubation at room temperature. […]

[4] = tested on: K562cells; assay: as above; conditions: K562 cells, 5,000 cells/well, 24 hours, two-fold serial dilution from 10 μM, FIG. 11A
Protocol: Campothecin was two-fold serially-diluted in RPMI 1640+10% FBS medium from 10 μM and added in 50 μL volumes. The cells were incubated at 37° C., 5% CO2 for 24 hours. CytoTox-Glo reagent was prepared as described above and added to each well in an equal volume (100 μL). After 15 minutes of incubation, the dead cell signal was measured. Digitonin (20 mg/mL in DMSO) was diluted in CytoTox-Glo buffer and added in 20 μL volumes to each well to facilitate complete cell lysis. Luminescence was measured after 15 minutes of incubation at room temperature.
The luminescent signal collected after lysis was adjusted to reflect the “live cell” contribution by subtracting the initial dead cell signal. The data were plotted as the non-viable and viable signals versus the concentration of campothecin (FIG. 11A). […] If only viability was measured, one might conclude that the compound was substantially cytotoxic. If only cytotoxicity was measured, one might conclude that the compound was not very potent. Either interpretation would be faulty.

Structure (SMILES)	dead and live cell signals versus the concentration of compound [1]	non-viable and viable signals versus the concentration of compound (viability and cytotoxicity) [3]	other results
CN[C@@H]1C[C@H]2O[C@@](C)([C@@H]1OC)n1c3ccccc3c3c4c(c5c6ccccc6n2c5c31)C(=O)NC4 [Staurosporine]	live and dead cells were inversely complimentary		
CC[C@H](C)[C@H](NC(=O)[C@H]([C@@H](C)CC)N(C)C(C)=O)C(=O)N[C@H](C(=O)N[C@@H](CC(C)C)C(=O)[C@@]1(C)CO1)[C@@H](C)O [epoxomicin, Epoxomicin]			non-viable and viable signals versus the concentration of compound [2]: viable and non-viable cells were inversely complimentary
COc1cc2c(c(OC)c1OC)-c1ccc(OC)c(=O)cc1[C@@H](NC(C)=O)CC2 [colchicine, Colchicine]		viability is reduced because of the cytotoxicity of the compound	
COC(=O)Nc1nc2ccc(C(=O)c3cccs3)cc2[nH]1 [nocodazole, Nocodazole]		viability and cytotoxicity are ratiometric	
C[C@H](CCC(=O)O)C[C@H](C)C[C@H](C)C(=O)/C=C(\O)[C@H](C)C[C@H](C)C/C=C/[C@@H](C)[C@@H](O)[C@@H](C)[C@@H](O)C[C@@H]1CC[C@@](C)([C@H]2CC[C@@](C)([C@@H](C)O)O2)O1 [ionomycin, Ionomycin]	live and dead cells were inversely complimentary		
CC[C@@]1(O)C(=O)OCc2c1cc1n(c2=O)Cc2cc3ccccc3nc2-1 [campothecin, Campothecin]			non-viable and viable signals versus the concentration of compound (viability and cytotoxicity) [4]: early cytotoxicity because of cell-cycle arrest
